Assay results taken from patent publication US12116357B2, “Heteroaryl-triazole and heteroaryl-tetrazole compounds as pesticides” (Bayer Aktiengesellschaft, priority 2018, dated 2024).

Tests used:
Type in all cases: in vivo
Phaedon cochleariae = Phaedon cochleariae spray test; details: 168 h, after 7 days
Summary of the method: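 Chinese cabbage leaf disks sprayed with compound in acetone/DMF diluted in water with 1000 ppm alkylarylpolyglycol ether emulsifier, then infested with mustard beetle larvae once dry. Mortality (%) scored after 7 days; 100% = all larvae killed, 0% = none.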

[1] = system: Blattella germanica strain PAULINIA; experiment: Blattella germanica test (surface treatment & contact assay); details: 24 hours after contact, read-out: efficacy (mortality); for mortality at 20 mg/m2: surface concentration 20 mg/m^2, 30 min exposure; for mortality at 4 mg/m2: surface concentration 4 mg/m^2, 30 min exposure
Method: (§1) • Solvent: Aceton+2000 ppm rapeseed oil methyl ester (RME)
In order to produce a sufficient, active ingredient containing solution it is necessary to solve the test compound in the solvent-mix (acetone at 2 mg/ml/RME 2000 ppm). This solution is pipetted onto a glazed tile and after evaporation of the acetone, adult animals of the species Blattella germanica strain […] are placed onto the dried surface. The exposure time is 30 minutes.
(§2) Mortality in percent (%) is determined 24 hours after contact of the insects to the treated surface. 100% mortality means that all tested insects are dead, whereas 0% means that no insect died.

[2] = system: Aedes aegypti strain MONHEIM; experiment: Aedes aegypti test (surface treatment & contact assay); details: 24 hours after contact, read-out: efficacy (mortality); for mortality at 4 mg/m2: surface concentration 4 mg/m^2, 30 min exposure; for mortality at 20 mg/m2: surface concentration 20 mg/m^2, 30 min exposure
Summary of the method: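 Compound dissolved in acetone (2 mg/ml) with 2000 ppm rapeseed oil methyl ester, applied to glazed tile and acetone evaporated; adult mosquitoes exposed on the dried surface for 30 min. Percent mortality scored 24 h after contact.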

Spodoptera frugiperda = Spodoptera frugiperda spray test; details: 168 h
Summary of the method: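 Maize leaf sections were sprayed with compound formulated in acetone/DMF and diluted in water containing 1000 ppm emulsifier, then infested with fall armyworm larvae once dry. Percent mortality was scored after 7 days.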

Boophilus microplus = Boophilus microplus injection test; details: Rhipicephalus microplus, 168 h, 20 μg/animal, egg deposition after 7 days, read-out: efficacy (infertile eggs)
Summary of the method: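 Engorged adult female ticks, five per test, received a 1 μl abdominal injection of compound in DMSO, then were kept in a climate chamber. Fertile egg deposition checked after 7 days, with unclear eggs held until hatching at about 42 days. Efficacy 100% means all eggs infertile, 0% all fertile.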

Ctenocephalides felis [3] = experiment: Ctenocephalides felis in-vitro contact test, adult cat flea; details: 5 μg/cm^2, after 48 hours, read-out: efficacy (fleas dead or moribund)
Summary of the method: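 Compound in acetone coated on glass tube walls (900 ppm solution, 5 μg/cm^2), solvent evaporated, then 5-10 adult fleas added and kept at room temperature. At 48 h, fleas put on a 45-50 °C plate for up to 5 min; those unable to climb scored dead or moribund, efficacy as % affected.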

[4] = system: Musca domestica strain WHO-N; experiment: Musca domestica test (surface treatment & contact assay); details: 24 hours after contact, read-out: efficacy (mortality); for mortality at 20 mg/m2: surface concentration 20 mg/m^2, 30 min exposure; for mortality at 4 mg/m2: surface concentration 4 mg/m^2, 30 min exposure
Summary of the method: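 Test compound dissolved in acetone (2 mg/ml) with 2000 ppm RME, applied to glazed tile and acetone evaporated. Adult flies placed on dried surface for 30 min exposure. Mortality (%) scored 24 h after contact; 100% means all insects dead.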

Nezara viridula = Nezara viridula spray test; details: 96 h
Summary of the method: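 Barley plants infested with N. viridula larvae sprayed with compound in acetone/DMF diluted in water with 1000 ppm emulsifier at the desired concentration. Mortality (%) scored after 4 days; 100% means all bugs killed.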

Myzus persicae [5] = experiment: Myzus persicae oral test; details: 120 h
Summary of the method: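 Mixed-population aphids feed through parafilm on compound solution (acetone concentrate diluted with water) combined with IPL41 insect medium (33%+15% sugar). Mortality (%) read after 5 days, 100% meaning all aphids killed.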

Ctenocephalides felis [6] = experiment: Ctenocephalides felis oral test; details: 48 h, 100 ppm in cattle blood, after 2 days
Summary of the method: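 Adult unfed cat fleas (~20) fed through parafilm on cattle blood containing compound (DMSO concentrate diluted in blood); blood held at 37° C., fleas at room temperature. Mortality (%) scored after 2 days.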

Nilaparvata lugens = Nilaparvata lugens spray test; details: 96 h
Summary of the method: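 Rice plants were sprayed with compound formulated in acetone/dimethylformamide and diluted in water containing alkylarylpolyglycol ether emulsifier, then infested with brown planthoppers. Percent mortality was scored after 4 days, where 100% means all insects killed.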

Myzus persicae [7] = experiment: Myzus persicae spray test; details: 120 h
Method: (§3) • Solvent: 78.0 parts by weight acetone • 1.5 parts by weight dimethylformamide • Emulsifier: alkylarylpolyglycol ether
(§4) To produce a suitable preparation of active compound, 1 part by weight of active compound is mixed with the stated amount of solvents and is diluted with water, containing an emulsifier concentration of 1000 ppm, to the desired concentration. Further test concentrations are prepared by dilution with emulsifier containing water.
Chinese cabbage (Brassica pekinensis) leaf disks infected with all instars of the green peach aphid (Myzus persicae), are sprayed with a preparation of the active ingredient of the desired concentration.
After 5 days mortality in % is determined. 100% means all aphids have been killed and 0% means none of the aphids have been killed.

Meloidogyne incognita = Meloidogyne incognita test; details: 20 ppm, after 14 days
Method: • Solvent: 125.0 parts by weight of acetone
To produce a suitable preparation of active compound, 1 part by weight of active compound is mixed with the stated amount of solvent, and the concentrate is diluted with water to the desired concentration.
Vessels are filled with sand, a solution of the active ingredient, a suspension containing eggs and larvae of the southern root-knot nematode (Meloidogyne incognita) and salad seeds. The salad seeds germinate and the seedlings grow. Galls develop in the roots.
After 14 days the nematicidal activity is determined on the basis of the percentage of gall formation. 100% means no galls were found and 0% means the number of galls found on the roots of the treated plants was equal to that in untreated control plants.

[8] = system: Anopheles funestus strain FUMOZ-R; experiment: Anopheles funestus test (surface treatment & contact assay); details: surface concentration 20 mg/m^2, 30 min exposure, 24 hours after contact, read-out: efficacy (mortality)
Method: as §1
In order to produce a sufficient, active ingredient containing solution it is necessary to solve the test compound in the solvent-mix (acetone at 2 mg/ml/RME 2000 ppm). This solution is pipetted onto a glazed tile and after evaporation of the acetone, adult mosquitoes of the species Anopheles funestus strain FUMOZ-R (Hunt et al., Med. Vet. Entomol. 2005 September; 19(3): 271-275) are placed onto the dried surface. The exposure time is 30 minutes.
as §2

[9] = system: Culex quinquefasciatus strain P00; experiment: Culex quinquefasciatus test (surface treatment & contact assay); details: 24 hours after contact, read-out: efficacy (mortality); for mortality at 4 mg/m2: surface concentration 4 mg/m^2, 30 min exposure; for mortality at 20 mg/m2: surface concentration 20 mg/m^2, 30 min exposure
Method: as §1
In order to produce a sufficient, active ingredient containing solution it is necessary to solve the test compound in the solvent-mix (acetone at 2 mg/ml/RME 2000 ppm). This solution is pipetted onto a glazed tile and after evaporation of the acetone, adult mosquitoes of the species Culex quinquefasciatus strain P00 are placed onto the dried surface. The exposure time is 30 minutes.
as §2

[10] = system: Tetranychus urticae (OP-Resistant); experiment: Tetranychus urticae (OP-resistant) spray test; details: 144 h, after 6 days
Method: as §3, §4
French bean (Phaseolus vulgaris) leaf disks infected with all instars of the two spotted spidermite (Tetranychus urticae), are sprayed with a preparation of the active ingredient of the desired concentration.
After 6 days mortality in % is determined. 100% means all spider mites have been killed and 0% means none of the spider mites have been killed.

[11] = system: cattle ticks (Boophilus microplus) strane Parhurst, SP-resistant; experiment: Boophilus microplus dip test; details: 100 ppm, egg deposition after 7 days
Method: • Test animal: cattle ticks (Boophilus microplus) strane Parhurst, SP-resistant • Solvent: dimethyl sulfoxide
To produce a suitable preparation of active compound, 10 mg of active compound are dissolved in 0.5 ml solvent, and the concentrate is diluted with water to the desired concentration.
This compound solution is pipetted into tubes. 8-10 engorged, adult, female cattle ticks (Boophilus microplus) are placed in perforated tubes. These tubes are immersed in the aqueous compound solution until the ticks are completely moistened. After the liquid has drained off, the ticks are transferred to a filter paper in a plastic tray and stored in a climate chamber.
After 7 days egg deposition of fertile eggs is monitored. Eggs where fertility is not visible are stored in a climate chamber till hatching after about 42 days. An efficacy of 100% means all eggs are infertile; 0% means all eggs are fertile.

Row | Compound | mortality at 500 g/ha (Phaedon cochleariae) | mortality at 20 mg/m2 [1] | mortality at 20 mg/m2 [2] | mortality at 500 g/ha (Spodoptera frugiperda) | pest or weed control at 0.02 mg (Boophilus microplus) | pest or weed control at 5 µg/cm2 (Ctenocephalides felis [3]) | mortality at 20 mg/m2 [4] | mortality at 500 g/ha (Nezara viridula) | mortality at 4 ppm (Myzus persicae [5]) | mortality at 20 ppm (Myzus persicae [5]) | mortality at 100 ppm (Ctenocephalides felis [6]) | mortality at 500 g/ha (Nilaparvata lugens) | mortality at 4 mg/m2 [4] | further results
1 | CC(c1ncnn1-c1ncccn1)N(C(=O)c1cc(Cl)cc(C(F)(F)F)c1)C1COC1 (centres unmarked) [Example I-021] | 100% | 80 to 100% | 90 to 100% | 83% | 100% | 100% | 90 to 100% | 100% | 100% | 100% | 100% |  |  | mortality at 4 mg/m2 [2]: 80 to 100%
2 | CC(c1ncnn1-c1ncccn1)N(CC1CS(=O)(=O)C1)C(=O)c1cc(Cl)cc(C(F)(F)F)c1 (centres unmarked) [Example I-004] | 100% | 80 to 100% | 90 to 100% | 100% | 100% |  | 90 to 100% | 100% | 100% | 100% | 100% | 100% | 90 to 100% | mortality at 4 mg/m2 [1]: 80 to 100%; mortality at 500 g/ha (Myzus persicae [7]): 100%
3 | CC(c1ncnn1-c1ncccn1)N(C(=O)c1cc(Cl)cc(C(F)(F)F)c1)C1CC1 (centres unmarked) [Example I-002] | 83% |  |  | 100% |  |  |  |  |  |  |  |  |  | nematicidal activity (gall formation) (Meloidogyne incognita): 100%
4 | CSCCN(C(=O)c1cc(Cl)cc(S(C)(=O)=O)c1)C(C)c1ncnn1-c1ccc(C#N)cn1 (centres unmarked) [Example I-035] |  |  | 90 to 100% | 100% |  | 100% | 90 to 100% | 100% | 100% |  |  | 90% | 90 to 100% | mortality at 20 mg/m2 [8]: 85 to 100%; mortality at 4 mg/m2 [9]: 85 to 100%; mortality at 20 mg/m2 [9]: 90 to 100%; mortality at 500 g/ha [10]: 90%; mortality at 500 g/ha (Myzus persicae [7]): 90%
5 | CC(c1ncnn1-c1ncccn1)N(CCS(C)(=O)=O)C(=O)c1cc(Cl)cc(C(F)(F)F)c1 (centres unmarked) [Example I-022] | 100% | 80 to 100% | 90 to 100% | 100% | 100% | 100% | 90 to 100% |  | 100% | 100% | 100% |  | 90 to 100% | mortality at 4 mg/m2 [1]: 80 to 100%; mortality at 4 mg/m2 [2]: 80 to 100%; mortality at 4 mg/m2 [9]: 85 to 100%; mortality at 20 mg/m2 [9]: 90 to 100%
6 | CC(c1ncnn1-c1ncccn1)N(Cc1ccccn1)C(=O)c1cc(Cl)cc(C(F)(F)F)c1 (centres unmarked) [Example I-001, 3-Chloro-N-(pyridin-2-ylmethyl)-N-{1-[1-(pyrimidin-2-yl)-1H-1,2,4-triazol-5-yl]ethyl}-5-(trifluoromethyl)benzamide] | 100% |  | 90 to 100% | 100% | 100% | 100% | 90 to 100% | 100% | 100% | 100% | 100% | 90% | 90 to 100% | nematicidal activity (gall formation) (Meloidogyne incognita): 90%; mortality at 500 g/ha [10]: 95%
7 | CC(c1ncnn1-c1ncccn1)N(CCc1ccc(F)cc1)C(=O)c1cc(Cl)cc(C(F)(F)F)c1 (centres unmarked) [Example I-003] | 100% |  | 90 to 100% | 100% | 100% |  | 90 to 100% | 100% | 100% | 100% | 100% | 100% | 90 to 100% | efficacy (infertile eggs) [11]: 100%
